Two compounds from article PMC12186255, “Discovery and Characterization of Small Molecule Inhibitors Targeting Exonuclease 1 for Homologous Recombination-Deficient Cancer Therapy” (ACS Chemical Biology, 2025) can be followed below.

The structures appear in SMILES notation. Entries after “also recorded” stand apart in the source; their conditions may differ. Where only a bound is given, the exact number is not on record here.

One assay concerns U2OS cells. The assay can be described thus: Homologous recombination assay (HR-GFP reporter). In kind it is cell-based, human. As to conditions: I-SceI, 0, 10, 50, 100 μM, 48 h. As for the experimental part:
Following viral infection, the culture medium was replaced with a fresh medium containing small molecule inhibitors. […] Subsequently, cells were harvested, and GFP-positive frequencies indicative of HR repair events were quantified using a CyAn ADP Analyzer (Beckman Coulter, Inc.). Experiments were performed in triplicate, and data are presented as mean ± standard deviation (S.D.).

For the next assay, the system named is MDA-MB-231. Briefly: Cell line drug profiling, CellTiter Glo. Format: cell-based. As to conditions: Homo sapiens; MDA-MB-231, Breast, 72 h. Here is the method: (§1) We tested the cytotoxicity of representative compounds from the seven EXO1i scaffolds against a subset of the NCI-60 cell line panel along with three additional pancreatic cell lines (FG, AsPC1, and CaPan2). In general, cells were seeded in 384-well tissue culture-treated plates overnight and treated with various concentrations of each hit compound (a serial 3-fold dilution from 50 μM for all tested hits). Each concentration was performed in duplicate. Cell viability was then measured by CellTiter Glo (Promega) after 72 h of treatment.
(In general: ATP-based viability assays read luminescence as a measure of living cells.)

For a further assay, the system named is UO-31. Briefly: Cell line drug profiling, CellTiter Glo. In kind it is cell-based. As to conditions: Homo sapiens; UO-31, Kidney, 72 h. Here is the method:
as §1

The subject of the next assay is HL-60(TB). The assay can be described thus: Cell line drug profiling, CellTiter Glo. Format: cell-based. As to conditions: Homo sapiens, Leukemia, 72 h. As for the experimental part: as §1
The subject of the next assay is AsPC1. Briefly: Cell line drug profiling, CellTiter Glo. Format: cell-based. Particulars: Homo sapiens; AsPC1, Pancreatic, 72 h. As for the experimental part: as §1
For a further assay, the system named is MCF7. The assay can be described thus: Cell line drug profiling, CellTiter Glo. In kind it is cell-based. Particulars: Homo sapiens; MCF7, Breast, 72 h. As for the experimental part:
as §1

The next assay concerns MCF7 (B3). Briefly: Cell line drug profiling, CellTiter Glo. Format: cell-based. As to conditions: Homo sapiens, Breast, 72 h. As for the experimental part: as §1
In a further assay the test system is HS 578T. Briefly: Cell line drug profiling, CellTiter Glo. In kind it is cell-based. As to conditions: Homo sapiens, Breast, 72 h. Here is the method:
as §1

Another assay has as its system SF-268. The assay can be described thus: Cell line drug profiling, CellTiter Glo. Format: cell-based. Particulars: Homo sapiens; SF-268, Central Nervous System, 72 h. As for the experimental part: as §1
A further assay has as its system BT549. The assay can be described thus: Cell line drug profiling, CellTiter Glo. As to conditions: Homo sapiens, BT-549; BT549, Breast, 72 h. In kind it is cell-based. Here is the method: as §1
In the next assay the test system is FG. The assay can be described thus: Cell line drug profiling, CellTiter Glo. Format: cell-based. Particulars: Homo sapiens, Pancreatic, 72 h. Here is the method: as §1
A further assay has as its system CaPan2. The assay can be described thus: Cell line drug profiling, CellTiter Glo. In kind it is cell-based. Particulars: Homo sapiens, Capan-2; CaPan2, Pancreatic, 72 h. Here is the method:
as §1

Another assay deals with ACHN. Briefly: Cell line drug profiling, CellTiter Glo. Format: cell-based. As to conditions: Homo sapiens, Kidney, 72 h. As for the experimental part:
as §1

The subject of a further assay is CCRF-CEM. Briefly: Cell line drug profiling, CellTiter Glo. In kind it is cell-based. As to conditions: Homo sapiens, Leukemia, 72 h. As for the experimental part: as §1
A further assay concerns OVCAR-3. Briefly: Cell line drug profiling, CellTiter Glo. In kind it is cell-based. Particulars: Homo sapiens; OVCAR-3, Ovarian, 72 h. As for the experimental part: as §1
The subject of a further assay is SK-MEL-28. Briefly: Cell line drug profiling, CellTiter Glo. In kind it is cell-based. Particulars: Homo sapiens; SK-MEL-28, Melanoma, 72 h. As for the experimental part: as §1
Assay [1] relates to subset of the NCI-60 cell line panel plus FG, AsPC1, CaPan2 (31 cell lines). The assay can be described thus: Tumor cell line drug profiling, CellTiter Glo, whole panel. As to conditions: Homo sapiens, 72 h, read-out: IC50 values across the cell line panel. In kind it is cell-based. As for the experimental part: as §1
For the next assay, the system named is MDA-MB-468. Briefly: Cell line drug profiling, CellTiter Glo. Format: cell-based, human. As to conditions: Homo sapiens, MDA-MB-468, 72 h. As for the experimental part: as §1
The target of a further assay is T1, EXO1 R92A (Homo sapiens, UniProt Q9UQ84, R92A).
T1 construct: The N-terminal domain of human EXO1 (hEXO1) (residues 1–345) was cloned into the pET28b vector; made in house; host or cells: E. coli BL21(DE3) and Rosetta 2(DE3)
The assay can be described thus: In vitro exonuclease activity of mutant with inhibitors. Format: biochemical. As to conditions: EXO1 25 nM, DNA substrate 250 nM; C200 0-5 μM, F684 10-40 μM. Here is the method:
(§2) Simultaneously, we tested the effect of each point mutation on the in vitro exonuclease activity. Most mutations in site 1 result in some loss of enzymatic activity compared to WT EXO1 (Figure S13; WT:Figure S13a), particularly K85A and D225A (Figure S13b,f). […] However, at concentrations of 20 and 40 μM, the mutants (K85A and R92A) behaved more like WT (Figure b).
(§3) In both panels a and b, DMSO without inhibitors was used as a control, and its relative binding activity was set equal to 1.0. The EXO1 enzyme concentration was 25 nM, and the DNA substrate concentration was 250 nM. The values shown are the mean ± S.D. of three independent experiments.
(§4) The N-terminal domain of human EXO1 (hEXO1) (residues 1–345) was cloned into the pET28b vector. The following mutations were introduced via site-directed mutagenesis based on the findings of molecular docking analysis: K85A, E89A, R92A, I125A, D225A, K292A, and K294A (oligonucleotide primers listed in Table S1) following the established protocol.

The next assay has as its target T2, EXO1 K85A (Homo sapiens, UniProt Q9UQ84, K85A).
T2 construct: The N-terminal domain of human EXO1 (hEXO1) (residues 1–345) was cloned into the pET28b vector; made in house; host or cells: E. coli BL21(DE3) and Rosetta 2(DE3)
The assay is described as above. Particulars: EXO1 25 nM, DNA substrate 250 nM; C200 0-5 μM, F684 10-40 μM. Format: biochemical. As for the experimental part:
as §2, §3, §4

The target in the next assay is T3, FEN1 (Homo sapiens, UniProt P39748).
T3 construct: made in house
Briefly: Analogous FRET-based counter screen with purified FEN1. Format: biochemical. As to conditions: FRET-based assay, maximum inhibitor concentration 100 μM. Here is the method:
Data were normalized by subtracting the relative fluorescence unit (RFU) of the blank sample from that of each EXO1-containing reaction. The relative activity of individual compounds was subsequently calculated by setting the corrected RFU of EXO1 with DMSO as 100% and comparing the corrected RFU for each condition to the DMSO value. Each assay was performed by sequentially adding experimental compounds, the EXO1 enzyme, and the DNA substrate to minimize starting differences. […] Following IC50 screening, an analogous FRET-based assay was performed using purified FEN1 to assess the EXO1 specificity of each compound.
For subsequent hit confirmation, 84 compounds from the primary screen were picked from our internal stock and subjected to a dose-dependent response assay starting at 100 μM with 3-fold serial dilution. To analyze the data from the dose-dependent response assay, IC50 values for each hit were calculated through nonlinear regression analysis using GraphPad Prism 10 (GraphPad Software, Inc.). […] Subsequently, a counter screen was performed to eliminate potential false-positive hits. To accomplish this, we established an analogous FRET assay using the purified FEN1 enzyme in place of EXO1.
In general terms: The purpose of a counterscreen is to sort out artefacts and off-target activity.

T1 sequence (Q9UQ84 1-345 R92A): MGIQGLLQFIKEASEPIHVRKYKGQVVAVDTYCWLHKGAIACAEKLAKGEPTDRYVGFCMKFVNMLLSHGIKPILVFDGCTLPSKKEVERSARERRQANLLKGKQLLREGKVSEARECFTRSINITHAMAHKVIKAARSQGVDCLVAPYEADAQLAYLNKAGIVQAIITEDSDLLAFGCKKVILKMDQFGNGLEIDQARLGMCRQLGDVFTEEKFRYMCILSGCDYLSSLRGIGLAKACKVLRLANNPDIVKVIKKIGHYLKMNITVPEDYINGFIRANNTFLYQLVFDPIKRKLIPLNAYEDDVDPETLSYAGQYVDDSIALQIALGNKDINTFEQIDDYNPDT
T2 sequence (Q9UQ84 1-345 K85A): as the sequence (Q9UQ84 1-345 R92A) above, with K85A, A92R counted along it
T3 sequence (P39748 whole entry): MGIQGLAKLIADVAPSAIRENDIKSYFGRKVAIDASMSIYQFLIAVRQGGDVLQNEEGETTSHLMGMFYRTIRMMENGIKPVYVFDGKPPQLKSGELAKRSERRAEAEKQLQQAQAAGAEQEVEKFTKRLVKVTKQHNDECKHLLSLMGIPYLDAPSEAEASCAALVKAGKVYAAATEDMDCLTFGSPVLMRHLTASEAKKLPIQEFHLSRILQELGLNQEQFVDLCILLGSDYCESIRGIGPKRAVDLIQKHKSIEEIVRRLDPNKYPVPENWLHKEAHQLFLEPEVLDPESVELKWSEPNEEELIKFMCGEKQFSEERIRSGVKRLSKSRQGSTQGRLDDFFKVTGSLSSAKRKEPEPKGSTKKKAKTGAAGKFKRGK

Regarding `COC(=O)c1nc(-c2ccc(OC)cc2)nc(O)c1O` [C200], the “HR frequency (GFP-positive cells)” value with U2OS cells is “no significant changes”. In addition, the IC50 with MDA-MB-231, in the assay with UO-31, in the assay on HL-60(TB), in the assay with AsPC1, in the assay with MCF7 and in the assay with MCF7 (B3) was > 50 µM throughout. Besides, the concentration for half-maximal inhibition (IC50) in the assay on HS 578T, with SF-268, in the assay with BT549, with FG, with CaPan2 and in the assay with ACHN was > 50 µM throughout. Further, the IC50 (usually the concentration needed to halve the response being measured) in the assay on CCRF-CEM was 27.4 µM; in the assay with OVCAR-3, > 50 µM; in the assay on SK-MEL-28 it was > 50 µM; in assay [1], > 50 µM; in the assay on MDA-MB-468, > 50 µM; on FEN1 it was > 100 µM. Moreover, the “inhibitory activity against EXO1 R92A mutant vs WT” value against EXO1 R92A is given as “partially lost its inhibitory effect; also recorded: abolished”. Further, the “inhibitory activity against EXO1 K85A mutant vs WT” value at EXO1 K85A was “did not have a significant”.

Consider `Cc1cccc(N2CCN(c3ccc(NS(=O)(=O)c4ccccc4)c(C(=O)O)c3)CC2)c1C` [F684], for which the “HR frequency (GFP-positive cells)” value with U2OS cells is given as “inhibition of HR that increased with dose”. Besides, the IC50 was 28.6 µM with MDA-MB-231; 20.6 µM in the assay on UO-31; 20.1 µM in the assay on HL-60(TB); > 50 µM in the assay with AsPC1; 20.1 µM with MCF7; 23.6 µM with MCF7 (B3). Further, the IC50 with HS 578T turned out to be 18.2 µM; with SF-268, 38.6 µM; in the assay on BT549 it was 12 µM; in the assay on FG, 27.5 µM; in the assay on CaPan2, 48.1 µM; with ACHN, 28.9 µM. For the same compound, the half-maximal inhibitory concentration (IC50) with CCRF-CEM was 14.6 µM; with OVCAR-3, 10.9 µM; with SK-MEL-28, 38 µM; in assay [1] it was 15 to 25 µM; in the assay on MDA-MB-468, 23.6 µM; against FEN1, > 100 µM. Moreover, the “inhibitory activity against EXO1 R92A mutant vs WT” value against EXO1 R92A is on record as “partially lost its inhibitory effects; also recorded: abolished”. The “inhibitory activity against EXO1 K85A mutant vs WT” value on EXO1 K85A is reported as “partially lost its inhibitory effects; also recorded: abolished”.
